Measurements taken from patent US20100056526A1, “HETEROMONOCYCLIC COMPOUND AND USE THEREOF” (Takeda Pharmaceutical Company Limited, priority 2006, published 2010).
Where a name gives a salt, the structure may show the parent alone. Read-outs that look alike come from different tables or passages of the source.

Experiments:
[1] = molecular target: T1, human AT1 receptor (Homo sapiens, UniProt P30556); experiment: Binding assay using human AT1 receptor-expressing CHO-K1 cell membrane fraction ([125I]-angiotensin II); conditions: 22.5 pM [125I]-angiotensin II, 9 μg AT1 membrane, 1 hr room temperature; read-out: AT1 receptor binding inhibitory action (IC50 (nM))
T1 construct: expressed in transfected cells; host or cells: CHO-K1
T1 sequence (P30556 1-359): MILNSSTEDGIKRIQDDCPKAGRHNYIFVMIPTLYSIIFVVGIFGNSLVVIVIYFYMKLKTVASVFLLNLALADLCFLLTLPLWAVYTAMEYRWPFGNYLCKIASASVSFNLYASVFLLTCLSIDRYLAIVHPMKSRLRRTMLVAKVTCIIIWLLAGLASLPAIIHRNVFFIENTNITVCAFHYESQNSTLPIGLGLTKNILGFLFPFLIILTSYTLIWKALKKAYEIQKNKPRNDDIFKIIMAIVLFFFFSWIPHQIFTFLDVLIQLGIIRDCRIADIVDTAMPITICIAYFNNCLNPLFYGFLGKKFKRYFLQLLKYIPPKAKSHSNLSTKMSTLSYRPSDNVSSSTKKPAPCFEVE
Summary of the method: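 Radioligand displacement: test compound competed with [125I]-angiotensin II (22.5 pM) on stable CHO-K1 AT1 membrane fraction, 1 hr, room temperature, Tris pH 7.4/MgCl2 buffer ± 0.3 mg/mL BSA. Filtration then scintillation counting; 1 μM CV-11974 defined nonspecific binding. Values are IC50s.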

[2] = molecular target: T2, PPARγ (Homo sapiens, UniProt P37231); experiment: Evaluation of PPARγ activating action (luciferase reporter in PPARγ:RXRα:4ERPP/CHO-K1 cells); type: cell-based; conditions: CHO-K1, 24 h, read-out: PPARγ activating action (activation % (10^−6 M))
T2 construct: expressed in transfected cells; host or cells: CHO-K1
T2 sequence (P37231 1-477 isoform P37231-2): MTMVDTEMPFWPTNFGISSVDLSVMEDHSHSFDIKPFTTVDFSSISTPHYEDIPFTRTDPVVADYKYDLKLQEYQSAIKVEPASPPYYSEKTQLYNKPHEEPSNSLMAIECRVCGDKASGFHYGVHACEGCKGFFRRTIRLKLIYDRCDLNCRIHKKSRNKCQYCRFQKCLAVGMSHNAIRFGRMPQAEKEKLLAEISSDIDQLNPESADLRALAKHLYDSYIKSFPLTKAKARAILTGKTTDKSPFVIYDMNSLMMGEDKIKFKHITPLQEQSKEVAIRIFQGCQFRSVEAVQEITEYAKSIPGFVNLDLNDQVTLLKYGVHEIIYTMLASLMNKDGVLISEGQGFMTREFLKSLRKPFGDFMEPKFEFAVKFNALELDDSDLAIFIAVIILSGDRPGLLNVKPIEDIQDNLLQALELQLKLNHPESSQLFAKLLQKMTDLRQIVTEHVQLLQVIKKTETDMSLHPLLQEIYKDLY
T2 sequence (P19793 1-462 partner): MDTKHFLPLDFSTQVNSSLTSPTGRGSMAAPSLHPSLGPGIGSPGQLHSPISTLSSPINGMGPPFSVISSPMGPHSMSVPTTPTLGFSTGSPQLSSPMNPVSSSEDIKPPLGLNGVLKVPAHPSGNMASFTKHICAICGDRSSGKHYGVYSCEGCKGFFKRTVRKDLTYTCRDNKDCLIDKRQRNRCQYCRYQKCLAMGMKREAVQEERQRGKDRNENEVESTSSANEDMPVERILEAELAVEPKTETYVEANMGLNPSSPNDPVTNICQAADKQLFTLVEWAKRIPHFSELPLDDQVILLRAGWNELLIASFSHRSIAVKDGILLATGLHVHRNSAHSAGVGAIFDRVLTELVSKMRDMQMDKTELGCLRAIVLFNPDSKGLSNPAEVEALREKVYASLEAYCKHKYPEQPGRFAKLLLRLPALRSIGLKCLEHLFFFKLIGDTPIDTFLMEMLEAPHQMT
Summary of the method: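 Activity is expressed as percent, where vehicle gives 0% and 1 μM compound X gives 100%, based on luciferase luminescence. Reporter CHO-K1 cells co-expressing PPARγ:RXRα with a 4ERPP-driven luciferase were incubated with test compound for one day at 37 °C in medium with 0.1% fatty acid-free BSA.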

[3] = test compound 10^−6 M, luciferase activity relative to control compound X (1 μM) = 100%, non-administration group = 0%

Row | Structure (SMILES) | IC50 [1] [nM] | activation at 1 µM [2, 3] [%] | activation at 1 µM [2] [%]
1 | CCCc1nc(C)n(-c2ccc(OC(C)COC)cc2)c(=O)c1Cc1ccc(-c2ccccc2-c2noc(=O)[nH]2)cc1 (stereo not drawn) [Example 293, 3-[4-(2-methoxy-1-methylethoxy)phenyl]-2-methyl-5-{[2′-(5-oxo-4,5-dihydro-1,2,4-oxadiazol-3-yl)biphenyl-4-yl]methyl}-6-propylpyrimidin-4(3H)-one] | 1.8 | 28.2 | 
2 | CCCc1nc(C)n(-c2ccc3c(c2)CC(C)(C)O3)c(=O)c1Cc1ccc(-c2ccccc2-c2noc(=O)[nH]2)cc1 [Example 239, 3-(2,2-dimethyl-2,3-dihydro-1-benzofuran-5-yl)-2-methyl-5-{[2′-(5-oxo-4,5-dihydro-1,2,4-oxadiazol-3-yl)biphenyl-4-yl]methyl}-6-propylpyrimidin-4(3H)-one] | 1.8 | 31.6 | 
3 | CCCc1nc(CC)c(C(O)C(C)C)c(=O)n1Cc1ccc(-c2ccccc2-c2noc(O)n2)cc1 (stereo not drawn) [Example 473, 6-ethyl-5-(1-hydroxy-2-methylpropyl)-3-{[2′-(5-oxo-4,5-dihydro-1,2,4-oxadiazol-3-yl)biphenyl-4-yl]methyl}-2-propylpyrimidin-4(3H)-one potassium salt] | 3.6 |  | 15.7
4 | CCCCc1nc(C)n(CCCC)c(=O)c1Cc1ccc(-c2ccccc2-c2noc(=O)[nH]2)cc1 [Example 294, 3,6-dibutyl-2-methyl-5-{[2′-(5-oxo-4,5-dihydro-1,2,4-oxadiazol-3-yl)biphenyl-4-yl]methyl}pyrimidin-4(3H)-one] | 1.8 | 47.1 | 
5 | CCCc1nc(C)n(-c2ccc(OC3CCCC3)cc2)c(=O)c1Cc1ccc(-c2ccccc2-c2noc(=O)[nH]2)cc1 [Example 319, 3-[4-(cyclopentyloxy)phenyl]-2-methyl-5-{[2′-(5-oxo-4,5-dihydro-1,2,4-oxadiazol-3-yl)biphenyl-4-yl]methyl}-6-propylpyrimidin-4(3H)-one] | 1.8 | 17.2 | 
6 | CCCc1nc(CC)c(-c2ccc(OC(F)(F)F)cc2)c(=O)n1Cc1ccc(-c2ccccc2-c2noc(O)n2)cc1 [Example 457, 6-ethyl-3-{[2′-(5-oxo-4,5-dihydro-1,2,4-oxadiazol-3-yl)biphenyl-4-yl]methyl}-2-propyl-5-[4-(trifluoromethoxy)phenyl]pyrimidin-4(3H)-one] | 3.5 | 36 | 
7 | CCCc1nc(C)c(-c2ccc(OC(C)C)cc2)c(=O)n1Cc1ccc(-c2ccccc2-c2noc(O)n2)cc1F [Example 450, 3-{[3-fluoro-2′-(5-oxo-4,5-dihydro-1,2,4-oxadiazol-3-yl)biphenyl-4-yl]methyl}-5-(4-isopropoxyphenyl)-6-methyl-2-propylpyrimidin-4(3H)-one] | 1.8 | 23.7 | 
8 | CCCc1nc(CC)c(-c2ccc(OC(C)(C)CO)cc2)c(=O)n1Cc1ccc(-c2ccccc2-c2noc(O)n2)cc1 [Example 512, 6-ethyl-5-[4-(2-hydroxy-1,1-dimethylethoxy)phenyl]-3-{[2′-(5-oxo-4,5-dihydro-1,2,4-oxadiazol-3-yl)biphenyl-4-yl]methyl}-2-propylpyrimidin-4(3H)-one] | 1.3 | 20.3 | 
9 | CCCc1nc(CC)n(-c2ccc(OC(C)(C)CO)cc2)c(=O)c1Cc1ccc(-c2ccccc2-c2noc(=O)[nH]2)cc1 [Example 377, 2-ethyl-3-[4-(2-hydroxy-1,1-dimethylethoxy)phenyl]-5-{[2′-(5-oxo-4,5-dihydro-1,2,4-oxadiazol-3-yl)biphenyl-4-yl]methyl}-6-propylpyrimidin-4(3H)-one] | 1.5 | 30.3 | 
10 | CCCc1ncn(-c2ccc3c(c2)CC(C)(C)O3)c(=O)c1Cc1ccc(-c2ccccc2-c2noc(=O)[nH]2)cc1 [Example 178, 3-(2,2-dimethyl-2,3-dihydro-1-benzofuran-5-yl)-5-{[2′-(5-oxo-4,5-dihydro-1,2,4-oxadiazol-3-yl)biphenyl-4-yl]methyl}-6-propylpyrimidin-4(3H)-one] | 2.6 | 37.5 | 
11 | CCCc1nc(C)n(-c2ccc3c(c2)CC(C)(C)O3)c(=O)c1Cc1ccc(-c2ccccc2-c2noc(=O)[nH]2)cc1Cl [Example 397, 5-{[3-chloro-2′-(5-oxo-4,5-dihydro-1,2,4-oxadiazol-3-yl)biphenyl-4-yl]methyl}-3-(2,2-dimethyl-2,.3-dihydro-1-benzofuran-5-yl)-2-methyl-6-propylpyrimidin-4(3H)-one] | 2.1 | 48.6 | 
12 | CCCc1nc(CC)n(-c2ccc(OC3CCC(O)C3)cc2)c(=O)c1Cc1ccc(-c2ccccc2-c2noc(=O)[nH]2)cc1 (stereo not drawn) [Example 425, 2-ethyl-3-{4-[(3-hydroxycyclopentyl)oxy]phenyl}-5-{[2′-(5-oxo-4,5-dihydro-1,2,4-oxadiazol-3-yl)biphenyl-4-yl]methyl}-6-propylpyrimidin-4(3H)-one] | 1.2 | 37.5 | 
13 | CCCCc1nc(COC)n(CC(C)(C)C)c(=O)c1Cc1ccc(-c2ccccc2-c2noc(=O)[nH]2)cc1 [Example 51, 6-butyl-3-(2,2-dimethylpropyl)-2-(methoxymethyl)-5-{[2′-(5-oxo-4,5-dihydro-1,2,4-oxadiazol-3-yl)biphenyl-4-yl]methyl}pyrimidin-4(3H)-one] | 1.5 | 19.6 | 
14 | CCCc1nc(CC)n(-c2ccc(OC(C)C)cc2)c(=O)c1Cc1ccc(-c2ccccc2-c2noc(=O)[nH]2)cc1 [Example 362, 2-ethyl-3-(4-isopropoxyphenyl)-5-{[2′-(5-oxo-4,5-dihydro-1,2,4-oxadiazol-3-yl)biphenyl-4-yl]methyl}-6-propylpyrimidin-4(3H)-one] | 2.4 | 58.7 | 
15 | CCCCc1nc(C)n(Cc2ccccn2)c(=O)c1Cc1ccc(-c2ccccc2-c2noc(=O)[nH]2)cc1 [Example 50, 6-butyl-2-methyl-5-{[2′-(5-oxo-4,5-dihydro-1,2,4-oxadiazol-3-yl)biphenyl-4-yl]methyl}-3-(pyridin-2-ylmethyl)pyrimidin-4(3H)-one] | 1.7 | 34.3 | 
16 | CCCc1nc(CC)n(-c2ccc(OC(C)(C)C(C)O)cc2)c(=O)c1Cc1ccc(-c2ccccc2-c2noc(=O)[nH]2)cc1 (stereo not drawn) [Example 444, 2-ethyl-3-[4-(2-hydroxy-1,1-dimethylpropoxy)phenyl]-5-{[2′-(5-oxo-4,5-dihydro-1,2,4-oxadiazol-3-yl)biphenyl-4-yl]methyl}-6-propylpyrimidin-4(3H)-one] | 1.3 | 55.4 | 
17 | CCCCc1nc(C)n(-c2ccoc2)c(=O)c1Cc1ccc(-c2ccccc2-c2noc(=O)[nH]2)cc1 [Example 206, 6-butyl-3-(3-furyl)-2-methyl-5-{[2′-(5-oxo-4,5-dihydro-1,2,4-oxadiazol-3-yl)biphenyl-4-yl]methyl}pyrimidin-4(3H)-one] | 2 | 21.8 | 
18 | CCCc1nc(CC)c(-c2ccc(OCC)nc2)c(=O)n1Cc1ccc(-c2ccccc2-c2noc(O)n2)cc1 [Example 507, 5-(6-ethoxypyridin-3-yl)-6-ethyl-3-{[2′-(5-oxo-4,5-dihydro-1,2,4-oxadiazol-3-yl)biphenyl-4-yl]methyl}-2-propylpyrimidin-4(3H)-one] | 2.2 | 32.4 | 
